Consider 23 molecules from ChEMBL document CHEMBL4043239, “Discovery and optimization of oxadiazole-based FLAP inhibitors” (Bioorg Med Chem Lett, 2017).

The nature of series [1]: Aqueous kinetic solubility of the compound at pH 7.4. The series is classed as physicochemical. The following applies: for solubility kinetic: aqueous, read-out: Kinetic_solubility; for Kinetic_solubility: buffer.
The target of series [2] is T1, Arachidonate 5-lipoxygenase-activating protein (Homo sapiens, UniProt P20292).
T1 sequence (P20292 whole entry): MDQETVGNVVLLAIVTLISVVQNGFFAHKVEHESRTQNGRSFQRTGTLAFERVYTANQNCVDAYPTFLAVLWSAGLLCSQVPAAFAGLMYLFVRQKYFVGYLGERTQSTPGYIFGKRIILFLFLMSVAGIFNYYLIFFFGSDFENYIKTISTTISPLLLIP
The series is described as follows: Inhibition of FLAP in calcimycin-stimulated human whole blood assessed as reduction in LTB4 production pretreated for 15 mins followed by calcimycin addition after 30 mins by ELISA. On the technique in general: In an ELISA, binding on a coated surface is turned into a signal by an enzyme label.

Series [3] in a line: Aqueous equilibrium solubility in citric acid/disodium phosphate buffer at pH 6.8 at 1 uM after 24 hrs by HPLC method. It counts as physicochemical. The following applies: for solubility thermodynamic at 24 h, 1 µM: citric acid/disodium phosphate buffer, pH 6.8.
Series [4] has as its target T1, Arachidonate 5-lipoxygenase-activating protein. In words: Displacement of [125I]-L-691831 from human FLAP expressed in Sf9 cell membranes after 2 hrs by Topcount method.
Series [5] can be described thus: Stability in human liver microsomes at 1 uM pretreated for 10 mins followed by NADPH addition after 60 mins by LC/MS analysis relative to hepatic blood flow. The series is classed as ADME, microsome. The following applies: read-out: Stability. A general note: Liver microsomes are vesicles of endoplasmic reticulum, rich in cytochrome P450 enzymes.

Each structure is given as a SMILES string. Converted amounts (≈) assume the structure as drawn. Where only a bound is given, the exact number is not on record here.

On to `COCCn1cc(-c2nc(C3(c4ccc(-c5cnc(N)nc5)cc4)CCC3)no2)cn1`, for which the solubility kinetic in series [1] is over 41 µg/mL.
Usually IC50 stands for the concentration needed to halve the response being measured. For `Cc1cc(-c2nc(C3(c4ccc(-c5cnc(N)nc5)cn4)CCC3)no2)[nH]n1`, the solubility kinetic in series [1] was over 37 µg/mL. In series [2], the IC50 stood at 342 nM.
`CN(C(=O)Cn1cc(-c2nc(C3(c4ccc(-c5cnc(N)nc5)nc4)CCC3)no2)cn1)C(C)(C)C`: the solubility kinetic in series [1] was found to be 27 µg/mL (≈ 55.4 µM). Also, the IC50 in series [2] stood at 262 nM.
As for `Nc1ncc(-c2ccc(C3(c4noc(N5CCCC5)n4)CCC3)cn2)cn1`, the half-maximal inhibitory concentration (IC50) in series [2] was determined as 917 nM.
As usually defined, the solubility (thermodynamic) is solubility found after equilibrating the solid with the medium. Regarding `N#CCCn1cc(-c2nc(C3(c4ccc(-c5cnc(N)nc5)nc4)CCC3)no2)cn1`, the thermodynamic solubility at 24 h, 1 µM in series [3] worked out at 9 µg/mL (≈ 21.8 µM). Besides, the solubility kinetic in series [1] was over 40 µg/mL. The IC50 in series [4] turned out to be 11 nM; in series [2], 85 nM.
For the molecule `COCCn1cc(-c2nc(C3(c4ccc(-c5cnc(N)nc5)nc4)CCC3)no2)cn1`, the solubility kinetic in series [1] was over 41 µg/mL. Also, the IC50 in series [2] is 213 nM.
For the molecule `CCn1cc(-c2nc(C3(c4ccc(-c5cnc(N)nc5)nc4)CCC3)no2)cn1`, the solubility kinetic in series [1] was over 38 µg/mL. Moreover, in series [2], the half-maximal inhibitory concentration (IC50) is 192 nM.
Consider `CN(C(=O)Cn1cc(-c2nc(C3(c4ccc(-c5cnc(N)nc5)cc4)CCC3)no2)cn1)C(C)(C)C`, for which, in series [1], the solubility kinetic was determined as 2 µg/mL (≈ 4.11 µM).
As for `CN(C)c1nc(C2(c3ccc(-c4cnc(N)nc4)nc3)CCC2)no1`, the IC50 in series [2] worked out at 2600 nM.
With `CC(C)(O)Cn1cc(-c2nc(C3(c4ccc(-c5cnc(N)nc5)cc4)CCC3)no2)cn1`, the solubility kinetic in series [1] is over 43 µg/mL.
Regarding `CC(C)(C)NC(=O)Cn1cc(-c2nc(C3(c4ccc(-c5cnc(N)nc5)nc4)CCC3)no2)cn1`, the solubility kinetic in series [1] is 26 µg/mL (≈ 54.9 µM). In series [2], the IC50 came out at 195 nM.
Turning to `CC(C)[C@](C)(c1ccc(-c2cnc(N)nc2)nc1)c1noc(-c2cnn(C)c2)n1`, the solubility (thermodynamic) at 24 h, 1 µM in series [3] worked out at 4 µg/mL (≈ 10.2 µM). Further, in series [1], the Kinetic_solubility entry was “Soluble”. The IC50 in series [4] is 16 nM; in series [2], 33 nM. In addition, the hepatic extraction ratio at 1 h, 1 µM in series [5] was under 0.3.
As for `CC(C)(C#N)n1cc(-c2nc(C3(c4ccc(-c5cnc(N)nc5)nc4)CCC3)no2)cn1`, in series [1], the solubility kinetic was found to be 2 µg/mL (≈ 4.68 µM). In addition, the IC50 in series [2] came to 94 nM.
Consider `Cc1cc(-c2nc(C3(c4ccc(-c5cnc(N)nc5)cc4)CCC3)no2)[nH]n1`, for which the solubility kinetic in series [1] came out at 3 µg/mL (≈ 8.03 µM). For the same molecule, the IC50 in series [2] was determined as 80 nM.
For the molecule `Nc1ncc(-c2ccc(C3(c4noc(N)n4)CCC3)cc2)cn1`, the solubility kinetic in series [1] was 22 µg/mL (≈ 71.3 µM).
`Cc1cc(-c2nc(C3(c4ccc(-c5cnc(N)nc5)nc4)CCC3)no2)[nH]n1`: the solubility kinetic in series [1] is over 37 µg/mL. In addition, the IC50 in series [2] stood at 164 nM.
`C[C@@](c1ccc(-c2cnc(N)nc2)nc1)(c1noc(-c2cnn(C3COC3)c2)n1)C1CC1`: in series [3] (buffer, pH 6.8, 24 h, 1 µM), the solubility entry is reported as “Soluble”. Further, the Kinetic_solubility result in series [1] is recorded as “Soluble”. For the same molecule, the IC50 in series [4] worked out at 1.5 nM; in series [2], 12 nM. In addition, the hepatic extraction ratio at 1 h, 1 µM in series [5] stood at 0.45.
Take `N#CCCn1cc(-c2nc(C3(c4ccc(-c5cnc(N)nc5)cc4)CCC3)no2)cn1`: in series [1], the solubility kinetic was 17 µg/mL (≈ 41.2 µM). For the same molecule, the IC50 in series [4] turned out to be 1 nM; in series [2] it was 37 nM.
Turning to `CC(C)(C)NC(=O)Cn1cc(-c2nc(C3(c4ccc(-c5cnc(N)nc5)cc4)CCC3)no2)cn1`, in series [1], the solubility kinetic turned out to be 22 µg/mL (≈ 46.6 µM).
`CC(C)(CO)n1cc(-c2nc(C3(c4ccc(-c5cnc(N)nc5)cc4)CCC3)no2)cn1`: the solubility kinetic in series [1] is over 43 µg/mL. Moreover, the IC50 in series [2] came out at 155 nM.
Consider `CC(C)(CO)n1cc(-c2nc(C3(c4ccc(-c5cnc(N)nc5)nc4)CCC3)no2)cn1`, for which the solubility kinetic in series [1] was over 43 µg/mL. The IC50 in series [2] turned out to be 403 nM.
`Cn1cc(-c2nc(C3(c4ccc(-c5cnc(N)nc5)cn4)CCC3)no2)cn1`: the solubility kinetic in series [1] is over 37 µg/mL. In addition, the IC50 in series [2] was 787 nM.
On to `CN(C)c1nc(C2(c3ccc(-c4cnc(N)nc4)cc3)CCC2)no1`, for which the solubility kinetic in series [1] was 1.9 µg/mL (≈ 5.65 µM).
